Reference: patent publication US20050222207A1, “Phosphodiesterase 4 inhibitors, including N-substituted diarylamine analogs” (priority 2003, published 2005)

What was measured:
rats [1] = assay: Passive avoidance in rats, in vivo test for learning and memory (MK-801 amnesia); set-up: species or system rat; settings: MK-801 0.1 mg/kg, retention test 24 hours after shock, compared to vehicle, p<0.001
Experimental: The test was performed as previously described (Zhang, H.-T., Crissman, A. M., Dorairaj, N. R., Chandler, L. J., and O'Donnell, J. M., Neuropsychopharmacology, 2000, 23, 198-204.). The apparatus (Model E10-16SC, Coulbourn Instruments, Allentown, Pa.) consisted of a two-compartment chamber with an illuminated compartment connected to a darkened compartment by a guillotine door. The floor of the darkened compartment consisted of stainless steel rods through which an electric foot-shock could be delivered from a constant current source. All experimental groups were first habituated to the apparatus the day before the start of the experiment. During the training, the rat (Male Spraque-Dawley (Harlan) weighing 250 to 350 g) was placed in the illuminated compartment facing away from the closed guillotine door for 1 minute before the door was raised. The latency for entering the darkened compartment was recorded. After the rat entered the darkened compartment, the door was closed and a 0.5 mA electric shock was administered for 3 seconds. […] The latency for entering the darkened compartment was recorded for up to 180 seconds, at which time the trial was terminated.
(§1) All data were analyzed by analyses of variance (ANOVA); individual comparisons were made using Kewman-Keuls tests. […]

rats [2] = assay: Radial arm maze task in rats, in vivo test for learning and memory (MK-801 amnesia); set-up: species or system rat; settings: MK-801 0.1 mg/kg i.p., compared to control, p<0.01
Experimental: The test was performed as previously described (Zhang, H.-T., Crissman, A. M., Dorairaj, N. R., Chandler, L. J., and O'Donnell, J. M., Neuropsychopharmacology, 2000, 23, 198-204.). Five days after initial housing, rats (male Spraque-Dawley (Harlan) weighing 250 to 350 g) were placed in the eight-arm radial maze (each arm was 60×10×12 cm high; the maze was elevated 70 cm above the floor) for acclimation for two days. Rats were then placed individually in the center of the maze for 5 minutes with food pellets placed close to the food wells, and then, the next day, in the wells at the end of the arms; 2 sessions a day were conducted. Next, four randomly selected arms were then baited with one pellet of food each. The rat was restricted to the center platform (26 cm in diameter) for 15 seconds and then allowed to move freely throughout the maze until it collected all pellets of food or 10 minutes passed, whichever came first. Four parameters were recorded: 1) working memory errors, i.e., entries into baited arms that had already been visited during the same trial; 2) reference memory errors, i.e., entries into unbaited arms; 3) total arm entries; and 4) the test duration (seconds), i.e., the time spent in the collection of all the pellets in the maze. […]
as §1

SMILES	melting point [°C]	latency for entering the darkened compartment (rats [1])	frequency of reference memory errors (rats [2])	frequency of working memory errors (rats [2])
COc1cc(N(Cc2cncs2)c2ccc(C(=O)O)cc2)ccc1C(N)=O	196.7 to 196.8			
C[C@]12N[C@H](Cc3ccccc31)c1ccccc12 [MK-801]		markedly reduced	increased	increased
